This note sets out measurements from US12173007B2, “Imidazopyridazine IL-17 inhibitor compounds” (Janssen Pharmaceutica NV, priority 2021, dated 2024).

pIC50: −log10 of the molar value.

Assay [1] deals with T1, IL-17A(FLAG-Tagged): IL-17RA(His-Tagged) binding (Homo sapiens, UniProt Q16552, K93Q). The assay can be described thus: IL-17A(FLAG-tagged):IL-17RA(His-tagged) binding disruption Eu-HTRF assay, Protocol 1. The conditions noted are these: FLAG-IL-17A 2.5 nM; average if tested more than once. An excerpt: IL-17A(FLAG-Tagged): IL-17RA(His-Tagged) Binding Disruption Eu-HTRF Assay
An antibody directed against the FLAG tag of IL-17A (SEQ ID NO: 1) is labeled with the HTRF donor chromophore (Europium-cryptate). IL-17A is present as a dimer that is “locked into” this quaternary structure due to the formation of loop-spanning […] disulfide bridges. The construct of IL-17RA used in the assay excludes the […] portion of the receptor and is fused to a C-terminal 10×His tag (SEQ ID NO:2). An antibody directed against the His tag of the IL-17RA chimera is labeled with the HTRF acceptor chromophore (“D2”). The fluorescence-resonance energy transfer (FRET) depends on the vicinity of the donor chromophore to the acceptor, and interruption of the binding between the IL-17A and IL-17RA causes the reduction/loss of FRET. Therefore, this assay allows to evaluate the compound effect on the binding IL-17A and IL-17RA by monitoring the fluorescence intensity of donor vs acceptor. The assay was run using either Protocol 1 or Protocol 2 as described below.
Protocol 1. 40 nl of 2-fold serial diluted compound solution for total 22 dilution points is added into each well of a 1536-well, white, low-volume, non-binding plate (Greiner #782904), then 2 μl of FLAG tagged IL-17A at 2×final concentration (2.5 nM) in solution of PBS+0.01% Triton-X100 is added to each well. The assay plate is briefly centrifuged then incubated for 1 h at rt. A mixed solution is prepared containing 2×5 nM 10HIS×IL-17RA, 2×2.5 nM Eu-anti-FLAG (CISBIO), 2×5 nM D2-anti-HIS (CISBIO) in PBS+0.01% Triton-X100+200 mM Potassium Fluoride (Sigma 60238) and 2 μl of mix is added to each well of the assay plate. The plate is briefly centrifuged then incubated for 2 h at rt. The HTRF intensities at the wavelength of donor (620 nm) and acceptor (665 nm) are measured using BMG Pherastar. The ratio between intensities at two wavelengths is calculated and plotted against the compound concentration and the data is fitted to a one-site competition model to yield IC50 of the compound.

The subject of assay [2] is IL-17A-induced G-CSF production in human normal keratinocyte (NHK). Kind of assay: NHK assay: IL-17A-induced G-CSF production in normal human keratinocytes. The format is cell-based. The conditions noted are these: 24 h, IL-17A 5 ng/mL, G-CSF by HTRF, average if tested more than once. In a few lines:
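IC50 derives from G-CSF in supernatants, quantified by HTRF from a standard curve, with CellTiter-Glo viability compared to DMSO control. Before a 24 h, 37°C culture of normal human keratinocytes at 3000–4000 cells/well, compound dilutions were preincubated 1 h at rt with human IL-17A (5 ng/mL final), with 0.2% DMSO and 5% FBS.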

Assay [3] concerns the target T1, IL-17A(FLAG-Tagged): IL-17RA(His-Tagged) binding. Kind of assay: IL-17A(FLAG-tagged):IL-17RA(His-tagged) binding disruption Eu-HTRF assay, Protocol 2. The conditions noted are these: FLAG-IL-17A 1 nM; average if tested more than once. Summed up: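 FLAG-tagged IL-17A (1 nM final) was preincubated with compound (2-fold serial dilutions, 22 points) for 1 h at rt in PBS + 0.01% Triton X-100. 10×His-IL-17RA, Eu-anti-FLAG and D2-anti-His in buffer containing KF were then added for 2 h at rt. IC50 came from the 665/615 nm HTRF ratio fitted to a one-site competition model.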
In general terms: TR-FRET usually uses a lanthanide donor and a delayed reading to cut background.

T1 sequence (Q16552 with tags, fused parts or gaps K93Q): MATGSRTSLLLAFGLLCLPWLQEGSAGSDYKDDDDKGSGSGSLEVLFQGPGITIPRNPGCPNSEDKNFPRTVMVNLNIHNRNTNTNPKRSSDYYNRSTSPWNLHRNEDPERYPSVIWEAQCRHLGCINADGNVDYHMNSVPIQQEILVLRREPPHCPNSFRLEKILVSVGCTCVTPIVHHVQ

As a reminder, the pIC50 is the negative decadic logarithm of the IC50, by convention in mol/L. Lower therefore signals a large IC50. For `CC(C)n1nccc1C(=O)N[C@H](c1cn2ncc(CN3CCCCNC3=O)cc2n1)C1CCC(F)(F)CC1` [Example 31, (S)—N-((4,4-Difluorocyclohexyl)(7-((2-oxo-1,3-diazepan-1-yl)methyl)imidazo[1,2-b]pyridazin-2-yl)methyl)-1-isopropyl-1H-pyrazole-5-carboxamide], the negative logarithm of the IC50 (pIC50) is less than 7.00 in assay [1] and less than 7.00 in assay [2] (Homo sapiens, Keratinocyte).

Turning to `Cc1nonc1C(=O)N[C@@H](CCC(C)(C)C(F)(F)F)c1cn2ncc([C@@H](COC3CC3)N3CC(F)(F)CNC3=O)cc2n1` [Example 56, N—((S)-1-(7-((S)-2-Cyclopropoxy-1-(5,5-difluoro-2-oxotetrahydropyrimidin-1(2H)-yl)ethyl)imidazo[1,2-b]pyridazin-2-yl)-5,5,5-trifluoro-4,4-dimethylpentyl)-4-methyl-1,2,5-oxadiazole-3-carboxamide], the pIC50 in assay [3] was more than 7.30; in assay [2] (Homo sapiens, Keratinocyte), more than 7.30.

Regarding `COC[C@H](c1cnn2cc(C(CCC3(C(F)(F)F)CC3)NC(=O)c3nonc3C)nc2c1)N1CC(F)(F)CNC1=O` (single isomer, unassigned) [Example 126, N—((S*)-1-(7-((S)-1-(5,5-Difluoro-2-oxotetrahydropyrimidin-1(2H)-yl)-2-methoxyethyl)imidazo[1,2-b]pyridazin-2-yl)-3-(1-(trifluoromethyl)cyclopropyl)propyl)-4-methyl-1,2,5-oxadiazole-3-carboxamide], the pIC50 in assay [3] and in assay [2] was more than 7.30 in each case.

`COc1nonc1C(=O)N[C@@H](CCC(C)(C)C(F)(F)F)c1cn2ncc(CN3CC(F)(F)CNC3=O)cc2n1` [Example 113, (S)—N-(1-(7-((5,5-Difluoro-2-oxotetrahydropyrimidin-1(2H)-yl)methyl)imidazo[1,2-b]pyridazin-2-yl)-5,5,5-trifluoro-4,4-dimethylpentyl)-4-methoxy-1,2,5-oxadiazole-3-carboxamide]: the pIC50 was more than 7.30 in assay [3] and more than 7.30 in assay [2] (Homo sapiens, Keratinocyte).

In the case of `[2H]C1([2H])NC(=O)N([C@H](COC2CC2)c2cnn3cc([C@@H](NC(=O)c4nonc4C)C4CCC(F)(F)CC4)nc3c2)C([2H])([2H])C1(F)F` (single isomer, unassigned) [Example 40], the pIC50 was more than 7.30 in assay [3] and more than 7.30 in assay [2] (Homo sapiens, Keratinocyte).

`COc1nonc1C(=O)N[C@@H](CCC(C)(C)C(F)(F)F)c1cn2ncc(CN3C[C@H]4[C@@H](CNC3=O)C4(F)F)cc2n1` (relative stereo) [Example 117, N—((S)-1-(7-(((1R*,7S*)-8,8-Difluoro-4-oxo-3,5-diazabicyclo[5.1.0]octan-3-yl)methyl)imidazo[1,2-b]pyridazin-2-yl)-5,5,5-trifluoro-4,4-dimethylpentyl)-4-methoxy-1,2,5-oxadiazole-3-carboxamide]: the pIC50 in assay [3] was more than 7.30; in assay [2] (Homo sapiens, Keratinocyte) it was more than 7.30.

`COC[C@H](c1cnn2cc([C@@H](NC(=O)c3nonc3C3CC3)[C@@H](C)OC3(C(F)(F)F)CC3)nc2c1)N1CC(F)(F)CNC1=O` (relative stereo) [Example 90, 4-Cyclopropyl-N-((1R*,2R*)-1-(7-((S)-1-(5,5-difluoro-2-oxotetrahydropyrimidin-1(2H)-yl)-2-methoxyethyl)imidazo[1,2-b]pyridazin-2-yl)-2-(1-(trifluoromethyl)cyclopropoxy)propyl)-1,2,5-oxadiazole-3-carboxamide]: the negative-log IC50 (pIC50) in assay [3] is more than 7.30; in assay [2] (Homo sapiens, Keratinocyte) it was more than 7.30.

As for `Cc1nonc1C(=O)N[C@@H](CCC(C)(C)C(F)(F)F)c1cn2ncc(CN3C[C@@H]4[C@H](CNC3=O)C4(F)F)cc2n1` (relative stereo) [Example 120, N—((S)-1-(7-(((1S*,7R*)-8,8-Difluoro-4-oxo-3,5-diazabicyclo[5.1.0]octan-3-yl)methyl)imidazo[1,2-b]pyridazin-2-yl)-5,5,5-trifluoro-4,4-dimethylpentyl)-4-methyl-1,2,5-oxadiazole-3-carboxamide], the pIC50 in assay [3] was less than 7.00; in assay [2] (Homo sapiens, Keratinocyte) it was less than 7.00.

Consider `COC[C@H](c1cnn2cc([C@@H](NC(=O)c3nonc3C(F)(F)F)C3CCC(F)(F)CC3)nc2c1)N1CC(F)(F)CNC1=O` [Example 84, N—((S)-(7-((S)-1-(5,5-Difluoro-2-oxotetrahydropyrimidin-1(2H)-yl)-2-methoxyethyl)imidazo[1,2-b]pyridazin-2-yl)(4,4-difluorocyclohexyl)methyl)-4-(trifluoromethyl)-1,2,5-oxadiazole-3-carboxamide], for which the negative-log IC50 (pIC50) was more than 7.30 in assay [3] and more than 7.30 in assay [2] (Homo sapiens, Keratinocyte).

With `COC[C@H](c1cnn2cc([C@@H](NC(=O)c3nonc3C3CC3)[C@@H](C)OC3CC3)nc2c1)N1CC(F)(F)CNC1=O` (relative stereo) [Example 54, N-((1R*,2R*)-2-Cyclopropoxy-1-(7-((S)-1-(5,5-difluoro-2-oxotetrahydropyrimidin-1(2H)-yl)-2-methoxyethyl)imidazo[1,2-b]pyridazin-2-yl)propyl)-4-cyclopropyl-1,2,5-oxadiazole-3-carboxamide], the pIC50 in assay [3] was more than 7.30; in assay [2] (Homo sapiens, Keratinocyte), 7.00 to 7.30.

Turning to `CC(C)(CC[C@H](NC(=O)c1nonc1C1CC1)c1cn2ncc(CN3CC(F)(F)CNC3=O)cc2n1)C(F)(F)F` [Example 114, (S)-4-Cyclopropyl-N-(1-(7-((5,5-difluoro-2-oxotetrahydropyrimidin-1(2H)-yl)methyl)imidazo[1,2-b]pyridazin-2-yl)-5,5,5-trifluoro-4,4-dimethylpentyl)-1,2,5-oxadiazole-3-carboxamide], the negative-log IC50 (pIC50) in assay [3] was more than 7.30; in assay [2] (Homo sapiens, Keratinocyte), more than 7.30.

Consider `O=C(N[C@H](c1cn2ncc([C@@H](C(F)F)N3CC(F)(F)CNC3=O)cc2n1)C1CCC(F)(F)CC1)c1nonc1C1CC1` [Example 89, 4-Cyclopropyl-N—((S)-(7-((S)-1-(5,5-difluoro-2-oxotetrahydropyrimidin-1(2H)-yl)-2,2-difluoroethyl)imidazo[1,2-b]pyridazin-2-yl)(4,4-difluorocyclohexyl)methyl)-1,2,5-oxadiazole-3-carboxamide], for which the negative logarithm of the IC50 (pIC50) in assay [3] was more than 7.30; in assay [2] (Homo sapiens, Keratinocyte) it was more than 7.30.

Regarding `COC[C@H](c1cnn2cc([C@H](CCC(C)(C)C(F)(F)F)NC(=O)c3nonc3OC)nc2c1)N1CC(F)(F)CNC1=O` [Example 109, N—((S)-1-(7-((S)-1-(5,5-Difluoro-2-oxotetrahydropyrimidin-1(2H)-yl)-2-methoxyethyl)imidazo[1,2-b]pyridazin-2-yl)-5,5,5-trifluoro-4,4-dimethylpentyl)-4-methoxy-1,2,5-oxadiazole-3-carboxamide], the negative logarithm of the IC50 (pIC50) in assay [3] is more than 7.30; in assay [2] (Homo sapiens, Keratinocyte), more than 7.30.

As to `O=C(N[C@H](c1cn2ncc([C@@H](COC3CC3)N3CC(F)(F)CNC3=O)cc2n1)C1CCC(F)(F)CC1)c1nonc1C(F)F` [Example 78, N—((S)-(7-((S)-2-Cyclopropoxy-1-(5,5-difluoro-2-oxotetrahydropyrimidin-1(2H)-yl)ethyl)imidazo[1,2-b]pyridazin-2-yl)(4,4-difluorocyclohexyl)methyl)-4-(difluoromethyl)-1,2,5-oxadiazole-3-carboxamide], the negative-log IC50 (pIC50) is more than 7.30 in assay [3] and more than 7.30 in assay [2] (Homo sapiens, Keratinocyte).

As for `COC[C@H](c1cnn2cc([C@@H](NC(=O)c3nonc3OC)C3CCC(F)(F)CC3)nc2c1)N1CC(F)(F)CNC1=O` [Example 108, N—((S)-(7-((S)-1-(5,5-Difluoro-2-oxotetrahydropyrimidin-1(2H)-yl)-2-methoxyethyl)imidazo[1,2-b]pyridazin-2-yl)(4,4-difluorocyclohexyl)methyl)-4-methoxy-1,2,5-oxadiazole-3-carboxamide], the pIC50 in assay [3] was more than 7.30; in assay [2] (Homo sapiens, Keratinocyte), more than 7.30.
